Data taken from PubChem BioAssay (NCI).
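Growth conditions: 96-well plates. Treatment: test compound, 48 hours, 5 concentrations. Analysis: linear interpolation between bracketing concentrations; unreached endpoints set to highest concentration. TGI denotes the concentration required for complete inhibition of growth.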

Experiments:
Experiment in all cases: NCI tumour cell line growth inhibition, 48 h
786-0 renal = test system: 786-0 renal
EKVX NSCLC = test system: EKVX NSCLC
HCT-116 colon = test system: HCT-116 colon
HOP-62 NSCLC = test system: HOP-62 NSCLC
IGROV1 ovarian = test system: IGROV1 ovarian
KM12 colon = test system: KM12 colon
LOX IMVI melanoma = test system: LOX IMVI melanoma
M14 melanoma = test system: M14 melanoma
MDA-N = test system: MDA-N
OVCAR-3 ovarian = test system: OVCAR-3 ovarian
OVCAR-4 ovarian = test system: OVCAR-4 ovarian
OVCAR-8 ovarian = test system: OVCAR-8 ovarian
SF-268 CNS = test system: SF-268 CNS
SF-295 CNS = test system: SF-295 CNS
SF-539 CNS = test system: SF-539 CNS
SNB-19 CNS = test system: SNB-19 CNS
SNB-75 CNS = test system: SNB-75 CNS
T-47D breast = test system: T-47D breast
TK-10 renal = test system: TK-10 renal
UO-31 renal = test system: UO-31 renal

C[N+]1(CCC[N+]2(C)CC3C4C=CC(CC4)C3C2)CCOCC1 (stereo not given)
TGI (786-0 renal): > 100 µM
TGI (EKVX NSCLC): > 100 µM
TGI (HCT-116 colon): > 100 µM
TGI (HOP-62 NSCLC): > 100 µM
TGI (IGROV1 ovarian): > 100 µM
TGI (KM12 colon): > 100 µM
TGI (LOX IMVI melanoma): > 100 µM
TGI (M14 melanoma): > 100 µM
TGI (MDA-N): > 100 µM
TGI (OVCAR-3 ovarian): > 100 µM
TGI (OVCAR-4 ovarian): > 100 µM
TGI (OVCAR-8 ovarian): > 100 µM
TGI (SF-268 CNS): > 100 µM
TGI (SF-295 CNS): > 100 µM
TGI (SF-539 CNS): > 100 µM
TGI (SNB-19 CNS): > 100 µM
TGI (SNB-75 CNS): > 100 µM
TGI (T-47D breast): > 100 µM
TGI (TK-10 renal): > 100 µM
TGI (UO-31 renal): > 100 µM

NC(Cc1ncccn1)C(=O)O (stereo not given)
TGI (786-0 renal): > 100 µM
TGI (EKVX NSCLC): > 100 µM
TGI (HCT-116 colon): > 100 µM
TGI (HOP-62 NSCLC): > 100 µM
TGI (IGROV1 ovarian): > 100 µM
TGI (KM12 colon): > 100 µM
TGI (LOX IMVI melanoma): > 100 µM
TGI (M14 melanoma): > 100 µM
TGI (MDA-N): > 100 µM
TGI (OVCAR-3 ovarian): > 100 µM
TGI (OVCAR-4 ovarian): > 100 µM
TGI (OVCAR-8 ovarian): > 100 µM
TGI (SF-268 CNS): > 100 µM
TGI (SF-295 CNS): > 100 µM
TGI (SF-539 CNS): > 100 µM
TGI (SNB-19 CNS): > 100 µM
TGI (SNB-75 CNS): > 100 µM
TGI (T-47D breast): > 100 µM
TGI (TK-10 renal): > 100 µM
TGI (UO-31 renal): > 100 µM

COC(=O)/C=C\C(C#N)(C#N)N=Cc1sccc1C
TGI (786-0 renal): 4.34 µM
TGI (EKVX NSCLC): 15 µM
TGI (HCT-116 colon): 6.69 µM
TGI (HOP-62 NSCLC): 27.8 µM
TGI (IGROV1 ovarian): 29 µM
TGI (KM12 colon): 30.3 µM
TGI (LOX IMVI melanoma): 3.31 µM
TGI (M14 melanoma): 5.48 µM
TGI (MDA-N): 15.1 µM
TGI (OVCAR-3 ovarian): 16 µM
TGI (OVCAR-4 ovarian): 10.3 µM
TGI (OVCAR-8 ovarian): 8.69 µM
TGI (SF-268 CNS): 26.1 µM
TGI (SF-295 CNS): 35.1 µM
TGI (SNB-19 CNS): 33.8 µM
TGI (SNB-75 CNS): 28.4 µM
TGI (T-47D breast): 5.92 µM
TGI (TK-10 renal): 4.12 µM
TGI (UO-31 renal): 3.51 µM

COc1c2c(cc3c1C1(O)Cc4ccc5c(c4C[N+]1(C)CC3)OCO5)OCO2 (stereo not given)
TGI (786-0 renal): > 100 µM
TGI (EKVX NSCLC): > 100 µM
TGI (HCT-116 colon): > 100 µM
TGI (HOP-62 NSCLC): > 100 µM
TGI (IGROV1 ovarian): > 100 µM
TGI (KM12 colon): > 100 µM
TGI (LOX IMVI melanoma): > 100 µM
TGI (M14 melanoma): > 100 µM
TGI (MDA-N): > 100 µM
TGI (OVCAR-3 ovarian): > 100 µM
TGI (OVCAR-4 ovarian): > 100 µM
TGI (OVCAR-8 ovarian): > 100 µM
TGI (SF-268 CNS): > 100 µM
TGI (SF-295 CNS): > 100 µM
TGI (SF-539 CNS): > 100 µM
TGI (SNB-19 CNS): > 100 µM
TGI (SNB-75 CNS): > 100 µM
TGI (T-47D breast): > 100 µM
TGI (TK-10 renal): > 100 µM

Cc1cccc2c(N)c3cccc(C(=O)NCC[N+]4(Cc5ccc([N+](=O)[O-])cc5)CCOCC4)c3nc12
TGI (786-0 renal): > 100 µM
TGI (EKVX NSCLC): > 100 µM
TGI (HCT-116 colon): 58.5 µM
TGI (HOP-62 NSCLC): > 100 µM
TGI (IGROV1 ovarian): > 100 µM
TGI (KM12 colon): > 100 µM
TGI (LOX IMVI melanoma): > 100 µM
TGI (M14 melanoma): > 100 µM
TGI (MDA-N): > 100 µM
TGI (OVCAR-3 ovarian): > 100 µM
TGI (OVCAR-4 ovarian): > 100 µM
TGI (OVCAR-8 ovarian): > 100 µM
TGI (SF-268 CNS): > 100 µM
TGI (SF-295 CNS): > 100 µM
TGI (SF-539 CNS): > 100 µM
TGI (SNB-19 CNS): > 100 µM
TGI (SNB-75 CNS): 63 µM
TGI (T-47D breast): 98.3 µM
TGI (TK-10 renal): > 100 µM
TGI (UO-31 renal): > 100 µM

O=C(Nc1cccc2ccccc12)c1ccccc1
TGI (786-0 renal): > 100 µM
TGI (EKVX NSCLC): > 100 µM
TGI (HCT-116 colon): > 100 µM
TGI (HOP-62 NSCLC): > 100 µM
TGI (IGROV1 ovarian): > 100 µM
TGI (KM12 colon): > 100 µM
TGI (LOX IMVI melanoma): > 100 µM
TGI (M14 melanoma): > 100 µM
TGI (MDA-N): > 100 µM
TGI (OVCAR-3 ovarian): > 100 µM
TGI (OVCAR-4 ovarian): > 100 µM
TGI (OVCAR-8 ovarian): > 100 µM
TGI (SF-268 CNS): > 100 µM
TGI (SF-295 CNS): > 100 µM
TGI (SF-539 CNS): > 100 µM
TGI (SNB-19 CNS): > 100 µM
TGI (SNB-75 CNS): > 100 µM
TGI (T-47D breast): 81.6 µM
TGI (TK-10 renal): > 100 µM
TGI (UO-31 renal): > 100 µM

CCCC1(CCC)c2cc(/C=N\O)ccc2-c2ccc(-c3ccc(C(C)(C)C)cc3)cc21
TGI (786-0 renal): > 100 µM
TGI (EKVX NSCLC): > 100 µM
TGI (HCT-116 colon): 54.8 µM
TGI (HOP-62 NSCLC): > 100 µM
TGI (IGROV1 ovarian): > 100 µM
TGI (KM12 colon): > 100 µM
TGI (LOX IMVI melanoma): > 100 µM
TGI (M14 melanoma): > 100 µM
TGI (MDA-N): > 100 µM
TGI (OVCAR-3 ovarian): 55 µM
TGI (OVCAR-4 ovarian): > 100 µM
TGI (OVCAR-8 ovarian): > 100 µM
TGI (SF-268 CNS): > 100 µM
TGI (SF-295 CNS): > 100 µM
TGI (SF-539 CNS): > 100 µM
TGI (SNB-19 CNS): > 100 µM
TGI (SNB-75 CNS): > 100 µM
TGI (T-47D breast): > 100 µM
TGI (TK-10 renal): > 100 µM
TGI (UO-31 renal): > 100 µM

COc1ccc(-n2c(=O)n(-c3ccccc3)c(=O)n2-c2ccc(OC)cc2)cc1
TGI (786-0 renal): > 100 µM
TGI (EKVX NSCLC): > 100 µM
TGI (HCT-116 colon): > 100 µM
TGI (HOP-62 NSCLC): > 100 µM
TGI (IGROV1 ovarian): > 100 µM
TGI (KM12 colon): > 100 µM
TGI (LOX IMVI melanoma): > 100 µM
TGI (M14 melanoma): > 100 µM
TGI (MDA-N): > 100 µM
TGI (OVCAR-3 ovarian): > 100 µM
TGI (OVCAR-4 ovarian): > 100 µM
TGI (OVCAR-8 ovarian): > 100 µM
TGI (SF-295 CNS): > 100 µM
TGI (SF-539 CNS): > 100 µM
TGI (SNB-19 CNS): > 100 µM
TGI (SNB-75 CNS): > 100 µM
TGI (T-47D breast): > 100 µM
TGI (TK-10 renal): > 100 µM
TGI (UO-31 renal): > 100 µM

CC(C)/C(=N\[N+](C)(C)C)c1ccccc1
TGI (786-0 renal): > 100 µM
TGI (EKVX NSCLC): > 100 µM
TGI (HCT-116 colon): > 100 µM
TGI (HOP-62 NSCLC): > 100 µM
TGI (IGROV1 ovarian): > 100 µM
TGI (KM12 colon): > 100 µM
TGI (LOX IMVI melanoma): > 100 µM
TGI (M14 melanoma): > 100 µM
TGI (MDA-N): > 100 µM
TGI (OVCAR-3 ovarian): > 100 µM
TGI (OVCAR-4 ovarian): > 100 µM
TGI (OVCAR-8 ovarian): > 100 µM
TGI (SF-268 CNS): > 100 µM
TGI (SF-295 CNS): > 100 µM
TGI (SF-539 CNS): > 100 µM
TGI (SNB-19 CNS): > 100 µM
TGI (SNB-75 CNS): > 100 µM
TGI (T-47D breast): > 100 µM
TGI (TK-10 renal): > 100 µM
TGI (UO-31 renal): > 100 µM

COP(=O)(OC)/C(=C/c1cn(C(c2ccccc2)(c2ccccc2)c2ccccc2)cn1)NC=O
TGI (786-0 renal): > 100 µM
TGI (EKVX NSCLC): 56.9 µM
TGI (HCT-116 colon): 32.8 µM
TGI (HOP-62 NSCLC): 35.9 µM
TGI (IGROV1 ovarian): 44.1 µM
TGI (KM12 colon): > 100 µM
TGI (LOX IMVI melanoma): 32.5 µM
TGI (M14 melanoma): 34.4 µM
TGI (MDA-N): 51.4 µM
TGI (OVCAR-3 ovarian): 30.2 µM
TGI (OVCAR-4 ovarian): 51.9 µM
TGI (OVCAR-8 ovarian): 60.4 µM
TGI (SF-268 CNS): 33.1 µM
TGI (SF-295 CNS): 30.5 µM
TGI (SF-539 CNS): 28.3 µM
TGI (SNB-19 CNS): > 100 µM
TGI (SNB-75 CNS): 23.3 µM
TGI (T-47D breast): > 100 µM
TGI (TK-10 renal): 46.3 µM
TGI (UO-31 renal): > 100 µM

O=C(NNS(=O)(=O)c1ccccc1)c1cccnc1
TGI (786-0 renal): > 100 µM
TGI (EKVX NSCLC): > 100 µM
TGI (HCT-116 colon): > 100 µM
TGI (HOP-62 NSCLC): > 100 µM
TGI (IGROV1 ovarian): > 100 µM
TGI (KM12 colon): > 100 µM
TGI (LOX IMVI melanoma): > 100 µM
TGI (M14 melanoma): > 100 µM
TGI (MDA-N): > 100 µM
TGI (OVCAR-3 ovarian): > 100 µM
TGI (OVCAR-4 ovarian): > 100 µM
TGI (OVCAR-8 ovarian): > 100 µM
TGI (SF-268 CNS): > 100 µM
TGI (SF-295 CNS): > 100 µM
TGI (SF-539 CNS): > 100 µM
TGI (SNB-19 CNS): > 100 µM
TGI (SNB-75 CNS): > 100 µM
TGI (T-47D breast): > 100 µM
TGI (TK-10 renal): > 100 µM
TGI (UO-31 renal): > 100 µM

O=C1CCCCC/C1=C\c1ccccc1
TGI (786-0 renal): > 100 µM
TGI (EKVX NSCLC): > 100 µM
TGI (HCT-116 colon): > 100 µM
TGI (HOP-62 NSCLC): > 100 µM
TGI (IGROV1 ovarian): > 100 µM
TGI (KM12 colon): > 100 µM
TGI (LOX IMVI melanoma): > 100 µM
TGI (M14 melanoma): > 100 µM
TGI (MDA-N): > 100 µM
TGI (OVCAR-3 ovarian): > 100 µM
TGI (OVCAR-4 ovarian): > 100 µM
TGI (SF-268 CNS): > 100 µM
TGI (SF-295 CNS): > 100 µM
TGI (SNB-19 CNS): > 100 µM
TGI (SNB-75 CNS): > 100 µM
TGI (T-47D breast): > 100 µM
TGI (TK-10 renal): > 100 µM
TGI (UO-31 renal): > 100 µM
